{"source": "patent US9161944B2", "about": "“Method for preventing cancer metastasis” (INSERM (INSTITUT NATIONAL DE LA SANTE ET DE LA SANTE ET DE …, priority 2010, dated 2015)", "key": {"IKCa": {"biological_target": "T1, IKCa (Homo sapiens, UniProt O15554)", "T1 construct": "expressed in transfected cells; host or cells: HEK293", "T1 sequence (O15554 whole entry)": "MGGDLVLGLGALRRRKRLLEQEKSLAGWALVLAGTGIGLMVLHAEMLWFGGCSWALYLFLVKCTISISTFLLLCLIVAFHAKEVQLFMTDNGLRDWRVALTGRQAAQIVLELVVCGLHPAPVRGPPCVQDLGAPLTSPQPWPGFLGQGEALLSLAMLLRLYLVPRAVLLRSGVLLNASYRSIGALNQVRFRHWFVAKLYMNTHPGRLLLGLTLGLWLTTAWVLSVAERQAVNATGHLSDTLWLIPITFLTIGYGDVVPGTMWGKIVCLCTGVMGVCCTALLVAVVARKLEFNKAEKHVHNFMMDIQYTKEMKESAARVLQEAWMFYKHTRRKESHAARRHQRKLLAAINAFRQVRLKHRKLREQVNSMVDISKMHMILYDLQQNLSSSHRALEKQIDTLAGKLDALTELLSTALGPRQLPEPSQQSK", "test": "Whole-cell K+ currents in HEK293 cells expressing recombinant IKCa", "format": "cell-based", "details": "10 μM, FIG. 9B", "method": "FIG. 9. Selectivity effect of JPH1701 on SKCa subtype and on IKCa channels. FIG. 9A) Example of whole-cell K^+ currents recorded in HEK293 cells expressing recombinants SK1, SK2, SK3 and IKCa channels before and after application of 10 μM JPH1701 (upper graphs: SK1 and SK2 respectively, bottom graphs: SK3 and IKCa respectively). Currents were generated by ramp protocol from −100 mV to +60 mV in 500 ms from a constant holding of 0 mV and with a pCa 6. FIG. 9B) Histograms showing the effect of 10 μM JPH1701 on SKCa (SK1, SK2, SK3) and IKCa current amplitudes recorded at 0 mV. […] For each channel (SK1, SK2, SK3 and IKCa) the left column (pale grey) represents the control result and the right column (dark grey) represents the result after JPH1701 application.\nThe selectivity of JPH1701 toward the others members of the SKCa/IKCa channels was tested. […] The experimental protocol was similar to the one used in FIG. 8. JPH1701 was tested for membrane potential from +60 mV to −100 mV on 500 msec."}, "MDA-MB-435s shSK3": {"test_system": "MDA-MB-435s shSK3", "test": "Transwell motility of cells not expressing SK3", "format": "cell-based, human", "details": "10 nM to 300 nM; non-specific effect at 1 μM, FIG. 6F", "method": "FIG. 6: JPH1701 (or Ohmline) activity on cell motility on cancerous MDA-MB-435s cells and on non cancerous MCF-10A cells. The motility was tested by transwell assay. Additionally, viability tests were performed using MTT assays. FIG. 6A-B) JPH1701 (the concentrations of JPH1701, for the FIG. 6A, are 0 (control condition), 10 nM, 100 nM, 300 nM and 1 μM) reduces motility (FIG. 6A) of MDA-MB-435s wild type (WT) cells from 10 nM without affecting viability (FIG. 6B) except at 10 μM. FIG. 6C-D) MCF-10A motility (FIG. 6C) and viability (FIG. 6D) are not affected by JPH1701 (the concentrations of JPH1701, for the FIG. 6C, are 0 (control condition), 10 nM, 100 nM, 300 nM and 1 μM). FIG. 6E-F) Effect on SK3 dependent motility.\nMDA-MB-435s and HEK293 cells were transduced with lentiviral vector at multiplicities of infection (MOI) of 1 to 3 in the presence of polybrene (4 μg/ml, Sigma). The transduction rate for MDA-MB-435s determined by counting GFP cells was close to 90%. In order to selection one clone of HEK293-SK3/KCa2.3 limit dilution were realized and each clone was tested in patch clamp with apamin and edelfosine and by western blotting in order to control expression of SK3/KCa2.3 channel.\nAt least three independent experiments were each performed in triplicate."}, "MDA-MB-435s-luc cells": {"test_system": "MDA-MB-435s-luc cells", "test": "Mammary fat pad (MFP)-model tumor", "format": "in vivo, NMRI nude mice", "details": "15 mg/kg i.v. three times a week", "method": "FIG. 10. Anti-metastatic effect of JPH1701 on experimental metastasis model. Two millions of MDA-MB-435s-luc cells pre-treated for 24 hours with JPH1701 (1 μM) or vehicle were grafted in MFP of NMRI/Nude mice. Mice were treated three times a week with JPH1701 at 15 mg/kg in i.v. or with vehicle during all the experiments (14-15 weeks). The primary tumor was surgical removed when its volume attempted 500 mm3 (6-7 weeks post-graft). Mice were euthanized 7-8 weeks after surgical removed of the primary tumor. FIG. 10A-B) In vivo BLI of metastases from mice treated with vehicle (FIG. 10A) or with JPH1701 (FIG. 10B) before euthanasia. FIG. 10C) Number of tissue with metastases detected ex vivo by bioluminescence (including lymph nodes, lungs, rachis and bone legs) after euthanasia. FIG. 10D) Metastatic score of mice treated with vehicle or with JPH1701. Two parameters were used to assess the metastatic score of each mouse: (i) Number of tissue or organ with metastases detected ex vivo by BLI and (ii) BLI intensity (photon/min) of each metastasis. […] The score of each cohort (sum of individually score) represents the degree of metastatic development assessed in vivo by BLI.\nTwo millions of MDA-MB-435s-luc cells pre-treated for 24 hours with JPH1701 (1 μM) or vehicle were grafted in MFP of NMRI/Nude mice. […] Two weeks post-graft, primary tumors were measured, weekly, during 6 weeks in three dimensions with a caliper and tumor volume was calculated (black circles: vehicle, open circles: JPH1701). […] Two weeks post-graft, the number of cancer cells in the primary tumor was evaluated weekly during 6 weeks by BLI imaging (black circles: vehicle, open circles: JPH1701). […]\nThe growth of primary tumors was weekly evaluated by caliper measurement and by bioluminescence imaging (BLI). The tumor volume was calculated as length×width×depth and the primary tumor was surgical removed when its volume attempted 500 mm3 (6-7 weeks post graft). Mice were euthanized 8 weeks after tumor excision and metastases were detected ex vivo by bioluminescence imaging in lymph nodes, lungs, rachis, and bone legs. […]"}}, "data": [{"substance": "hexadecyloxy-2-O-methyl-sn-glycerol-lactose [JPH1701]", "values": [{"measurement": "Effect on IKCa currents", "setting": "IKCa", "value": "inactive"}, {"measurement": "Effect on migration ability of cells not expressing SK3", "setting": "MDA-MB-435s shSK3", "value": "does not affect"}, {"measurement": "Metastatic score versus vehicle (Rank Sum Test)", "setting": "MDA-MB-435s-luc cells; 14-15 weeks, FIG. 10D", "value": "significantly different"}, {"measurement": "Number of cancer cells in the primary tumor (BLI) versus vehicle", "setting": "MDA-MB-435s-luc cells; 6 weeks, FIG. 12B", "value": "did not highlighted any significant difference"}, {"measurement": "Time course of primary tumor volume versus vehicle", "setting": "MDA-MB-435s-luc cells; over 6 weeks, FIG. 12A", "value": "no difference"}]}]}
